The source of these data is article PMC5398486, “Cheminformatics-aided discovery of small-molecule Protein-Protein Interaction (PPI) dual inhibitors of Tumor Necrosis Factor (TNF) and Receptor Activator of NF-κB Ligand (RANKL)” (PLoS Computational Biology, 2017).

The target of one series is T1, RANKL (Homo sapiens, UniProt O14788).
T1 sequence (O14788 143-317): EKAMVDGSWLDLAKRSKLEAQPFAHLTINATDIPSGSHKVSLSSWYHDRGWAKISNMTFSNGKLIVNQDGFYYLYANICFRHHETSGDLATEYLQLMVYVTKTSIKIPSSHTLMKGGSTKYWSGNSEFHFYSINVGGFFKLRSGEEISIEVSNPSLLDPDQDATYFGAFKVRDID
The series is described as follows: Fluorescence-based binding affinity assay, RANKL. The procedure: For use in the binding assays, recombinant TNF and RANKL were expressed and purified as previously described.[84–86] Fluorescence intensity was measure with a Synergy H1 Multi-Mode Reader (BioTek) in 96-well microplates (black) at 25°C. […] During preparation of the solutions the buffer was firstly added to all wells followed by the ligand solution and finally the protein was added. All solutions were mixed by pipetting and equilibrated for 1h at 25°C before measurement. […] Experiments were performed for TNF in 10 mM citrate-phosphate (pH 6.5) and for RANKL in 25 mM Tris–HCl buffer, 100 mM NaCl (pH 7.5); both buffers were supplemented with PEG3350 at the concentrations indicated in the respective figures. Kd values were calculated as mean ± SEM from three independent experiments.
Differences in fluorescence intensity between the protein/ligand complex and free protein (or free ligand) were analysed as previously described in [Papaneophytou et al. (2013) ACS Med Chem Lett. 4: 137-141] (Eq. S6) in order to determine the dissociation constant (Kd) of the various protein-ligand systems.
In Eq. (S6) Fobs is the observed fluorescence intensity; FBG is the fluorescence background signal; MFLF [picture] and PF are the molar fluorescence and concentration of free protein, respectively; FR is the fluorescence ratio of bound protein (or bound ligand in the case of a fluorescence ligand); LT and PT are the total concentrations of ligand and protein, respectively. A detailed analysis of the development of the fluorescence ligand-binding assay is given in [Papaneophytou et al. (2013) ACS Med Chem Lett. 4: 137-141].

Series [1] in a line: Solubility with PEG3350 as co-solvent. In kind it is physicochemical. As to conditions: PEG3350 2.5% v/v. The text has this:
PEG3350 was used as co-solvent in order to enhance inhibitors solubility and thus eliminate the possibility of aggregates formation. | column: Solubility (μM)

The next series deals with L929 cells. Also on record: method as in PMID 25160057. The conditions noted are these: compound alone, read-out: L929 LC50; cited from earlier work.
For series [2] the following is noted: PEG3350 0% v/v; cited from earlier work.
Series [3] concerns the molecule itself. The series is described as follows: cross-linking; 100 ng recombinant human TNF or RANKL, with or without inhibitors (30 min, room temperature), cross-linked with 4.8 mM BS3 for 30 min at room temperature; SDS-PAGE and western blot. On the technique in general: A western blot detects proteins with antibodies after separation by electrophoresis.

≈ marks a conversion by molar mass, not a printed value. Read-outs that look alike come from different tables or passages of the source. Marks after values point to notes of the source that are not given here.

For `Cc1cc2occ(CN(C)CCN(C)Cc3cn(-c4cccc(C(F)(F)F)c4)c4ccccc34)c(=O)c2cc1C` [SPD304, InChI = 1S/C32H32F3N3O2/c1-21-14-28-30(15-22(21)2)40-20-24(31(28)39)18-37(4)13-12-36(3)17-23-19-38(29-11-6-5-10-27(23)29)26-9-7-8-25(16–26)32(33,34)35/h5-11,14–16,19-20H,12–13,17-18H2,1-4H3, reference compound], the Kd – broadly, the equilibrium constant for the complex coming apart – at RANKL (RANKL 0.5 μM, PEG3350 2.5%, 25 mM Tri-HCl, 100 mM NaCl pH 7.5, read-out: Binding affinity (Kd), RANKL) worked out at 14.2 ± 0.68 µM; at RANKL (RANKL 0.5 μM, PEG3350 5%, 25 mM Tri-HCl, 100 mM NaCl pH 7.5, read-out: Binding affinity (Kd), RANKL), 13.8 ± 0.73 µM; on RANKL (fluorescence assay, 25°C, 25 mM Tris-HCl, 100 mM NaCl, pH 7.5, 5% PEG3350, read-out: Kd (RANKL complexes)) it was 13.8 ± 0.7 µM. Besides, the solubility (commonly how much of the substance goes into solution per volume) in series [1] was 71 µM (≈ 38.9 µg/mL); in series [2], 10^b μM. Moreover, the CC50 in the series on L929 cells is 7.5 ± 0.2 µM.

B1: recombinant human RANKL (Receptor activator of nuclear factor kappa-B ligand) (ligand, UniProt O14788 140-317, looked up)
chain: IRAEKAMVDGSWLDLAKRSKLEAQPFAHLTINATDIPSGSHKVSLSSWYHDRGWAKISNMTFSNGKLIVNQDGFYYLYANICFRHHETSGDLATEYLQLMVYVTKTSIKIPSSHTLMKGGSTKYWSGNSEFHFYSINVGGFFKLRSGEEISIEVSNPSLLDPDQDATYFGAFKVRDID
notes: source: bought: Peprotech
On to B1, for which, in series [3], the stoichiometry N (usually a count of units in the complex or per binding partner) stood at 3.
